Source: patent publication US8278105B2, “Induction, propagation and isolation of liver progenitor cells” (University of Southern California, priority 2008, dated 2012)

Tested on: HES2 or HES3 cells
Assay: 3i-induction of hepatocyte-like cells from human ES cells; dosages of medium components examined
Format: cell-based
Experimental: HES2 or 3 cells were cultured for 5 days on MEF-feeders with 20% FCS hES medium in organ culture dishes. […] Cells were detached as clumps by collagenase and feeder cells were removed by sedimentation in DMEM/F-12 medium.
They were subsequently propagated using 3i or Kubota's medium following enzymatic dissection.
HES2 or 3 cells were cultured 5 days on MEF-feeders with 20% FCS hES medium in organ culture dishes.
Cells were detached as clumps by collagenase and feeder cells were removed by sedimentation in DMEM/F-12 medium.

O=C(NOC[C@H](O)CO)c1ccc(F)c(F)c1Nc1ccc(I)cc1F [PD0325901]
efficiency of hepatic differentiation compared with 3i (PD0325901 0.4 μM, in combination of PD0325901 and CHIR99021): no difference from 3i
efficiency of hepatic differentiation compared with 3i (PD0325901 0.8 μM, in combination of PD0325901 and CHIR99021): more efficient than 3i
efficiency of hepatic differentiation (PD0325901 1.6 μM, in combination of PD0325901 and CHIR99021): no difference from 0.8 μM

Cc1c[nH]c(/C=C2\C(=O)Nc3ccccc32)c1CCC(=O)O [SU5402, 3-[3-(2-Carboxyethyl)-4-methylpyrrol-2-methylidenyl]-2-indolinone]
effect on hepatic differentiation (SU5402 1 μM, in combination of SU5402, PD184352 and CHIR99021): decreased hepatic differentiation and increased trophectodermal/neural cells
effect on hepatic differentiation (SU5402 2 μM, in combination of SU5402, PD184352 and CHIR99021): most efficient
toxicity to the culture (SU5402 4 μM, in combination of SU5402, PD184352 and CHIR99021): toxic

c1cc(-c2cnn3cc(-c4ccc(OCCN5CCCCC5)cc4)cnc23)ccn1 [Dorsomorphin]
toxicity to the culture (Dorsomorphin 5 μM, in combination of PD0325901, CHIR99021 and Dorsomorphin): toxic

O=C(NOCC1CC1)c1ccc(F)c(F)c1Nc1ccc(I)cc1Cl [PD184352]
effect on hepatic differentiation (PD184352 0.4 μM, in combination of SU5402, PD184352 and CHIR99021): decreased hepatic differentiation and increased trophectodermal cells
effect on hepatic differentiation (PD184352 0.8 μM, in combination of SU5402, PD184352 and CHIR99021): most efficient
effect on hepatic differentiation (PD184352 1.6 μM, in combination of SU5402, PD184352 and CHIR99021): no difference from 0.8 μM
